pIC50: −log10 of the molar value.
Key:
[1] = molecular target: HPK1 (SLP76 phosphorylation at Ser376 in Jurkat and EL-4 cells) (Homo sapiens, UniProt Q92918); type: cell-based; settings: αCD3/αCD28 Dynabeads stimulated cells, pSLP76 (Ser376) detection; read-out: HPK1 pSLP76 IC50
Method: Cellular Assay—Phospho-SLP-76 (Ser376).
Inhibition of HPK1 enzymatic activity in cells was determined by detection of SLP76 phosphorylation at Ser376 residue in lysate from Jurkat (human) and EL-4 (mouse) cells. Jurkat and EL-4 cells express both HPK1 and SLP76 naturally. All cells were cultured in RPMI 1640 media containing 10% heat inactivated fetal bovine serum (FBS) and 1×Penicillin-Streptomycin. In either Jurkat or El-4 assay, cells were pre-incubated with test compounds prior to T cell stimulation by respective αCD3/αCD28 Dynabeads™. For detection, plates were read on the Envision and percent inhibition and IC50 were determined by Smart fit in Genedata Analyzer.
For Jurkat cells: 35 μL cell suspension were dispensed at a density of 30,000 cells/well in 384-well plates containing HBSS (Gibco, 14025076)+0.1% BSA). 10-point logarithmic serial dilution of test compounds in DMSO were prepared by a Hamilton automated liquid handling robot and 35 nL was transferred into each well by an Echo liquid handler. After 60 min. pre-incubation, the cells were stimulated by adding 5 μL human T activator αCD3/αCD28 Dynabeads™ (Gibco, 11132D) at 1.2×107 beads/mL for 15 minutes at 37° C. Detection of Ser376 phosphorylation status was accomplished by first adding 10 μL of 5×AlphaLISA lysis buffer (Perkin Elmer, ALSU-PSLP-A500) to each well of the cell plate using a Multidrop Combi (5840300), followed by 20 minutes shaking. 10 μL cell lysate from each treatment were then transferred to a white 384-well plate (Corning 3572) and incubated with AlphaLISA acceptor beads for one hour (AlphaLISA SureFire Ultra p-SLP76(Ser376), Perkin Elmer, ALSU-PSLP-A500), and donor beads for additional 2 hours at room temperature in the dark.
For EL-4.IL2 assay, 50 μL cell suspension at 2×10^6 cells/mL in HBSS were first dispensed into 384-well plates and then 50 nL serial dilutions of test compounds were spotted to each well by an Echo liquid handler. After 60 min. incubation at 37° C., cells were stimulated by adding 5 μL mouse T cell activator αCD3/αCD28 Dynabeads™ (ThermFisher Scientific, 11452D) for 30 minutes at 37° C. After a brief spin and subsequent supernatant discarded, 12.5 μL of Cisbio lysis buffer were added to each well and plates were shaken for 30 min at 450 RPM. For detection, 4 μL prepared HTRF antibody mixture (Cisbio, 63ADK000U) in detection buffer were mixed with 16 μl of cell lysate and plates were incubated at room temperature for 19 hours prior to EnVision reading.

[2] = molecular target: full-length human HPK1 (MAP4K1) (Homo sapiens (Human), UniProt Q92918); assay: HPK1 Kinase Assay (Biochemical Assay), ADP-Glo; settings: GST-HPK1 3.2 nM, 10 μM ATP, MBP substrate, read-out: HPK1 enzymatic IC50
Chain of full-length human HPK1 (MAP4K1) (Q92918 whole entry): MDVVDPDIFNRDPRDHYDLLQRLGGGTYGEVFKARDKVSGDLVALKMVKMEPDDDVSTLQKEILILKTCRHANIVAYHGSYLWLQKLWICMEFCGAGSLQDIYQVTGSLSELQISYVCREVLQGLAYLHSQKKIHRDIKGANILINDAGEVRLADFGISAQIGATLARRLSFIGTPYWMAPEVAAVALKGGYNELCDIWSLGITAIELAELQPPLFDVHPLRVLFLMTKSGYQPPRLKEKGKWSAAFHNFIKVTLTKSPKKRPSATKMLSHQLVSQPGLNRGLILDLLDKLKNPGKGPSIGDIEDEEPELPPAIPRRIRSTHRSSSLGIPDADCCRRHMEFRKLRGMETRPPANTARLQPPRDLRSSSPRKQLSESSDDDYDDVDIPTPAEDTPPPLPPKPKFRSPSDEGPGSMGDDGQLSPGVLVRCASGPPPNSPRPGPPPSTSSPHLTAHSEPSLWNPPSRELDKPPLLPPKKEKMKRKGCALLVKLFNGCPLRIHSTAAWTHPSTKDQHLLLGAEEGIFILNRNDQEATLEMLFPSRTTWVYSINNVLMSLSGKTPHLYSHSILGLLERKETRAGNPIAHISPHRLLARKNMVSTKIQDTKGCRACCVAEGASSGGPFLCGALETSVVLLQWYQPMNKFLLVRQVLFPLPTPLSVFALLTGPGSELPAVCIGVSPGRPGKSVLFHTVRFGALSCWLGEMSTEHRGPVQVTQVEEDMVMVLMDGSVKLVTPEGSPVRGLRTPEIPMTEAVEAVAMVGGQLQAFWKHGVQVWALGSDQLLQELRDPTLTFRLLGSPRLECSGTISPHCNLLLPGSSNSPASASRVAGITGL
Description: HPK1 Kinase Assay (Biochemical Assay).
A recombinant fusion protein consisting of full-length human HPK1 (MAP4K1) with an N-terminal Glutatione S-transferase (GST) tag was produced in insect cells Sf21 using the baculovirus expression system. GST-HPK1 protein was purified from cell lysates by glutathione Sepharose affinity chromatography. The assay is run in three continuous steps: 1) the HPK1 enzymatic kinase reaction, 2) an ATP depletion, and 3) the ADP detection, the steps 2 and 3 are performed with ADP-Glo™ Kinase Assay kit from Promega (V9101). Test compounds were prepared by 10-point serial dilution in dimethyl sulfoxide (DMSO) and 100 nL of each dilution was spotted onto a 384-well Optiplate (Perkin Elmer and Cat #6007299) by Labcyte Echo. 5 μL kinase reaction buffer (0.02% Brij-35, 2 mM DTT, 50 mM HEPES pH 7.5, MgCl2 10 mM, BSA 0.01% and O-glycerophosphate 12.5 mM) containing HPK1 (3.2 nM) enzyme was transferred to each well and incubated for 15 minutes at room temperature at 60% humidity. The enzymatic reaction was started by adding 5 μl of Start-Mix (10 μM ATP and 3.235 μM MBP). After 120 minutes, the reaction was stopped by adding 5 μL of ADP-Glo reagent (Promega, V9101) and incubating for 40 min. in the dark at 23° C. To determine the level of ADP, 10 μl ADP-Glo Detection solution was added and incubated for 1 hour at 23° C. in the dark. The plate was transferred to a Perkin Elmer EnVision (2104 Multilabel Reader) for luminescence detection and percent inhibition activity and IC50 value were determined using Genedata Screener.

Chain of HPK1 (SLP76 phosphorylation at Ser376 in Jurkat and EL-4 cells) (Q92918 whole entry, looked up): as the sequence (Q92918 whole entry) above

pIC50 [1]	pIC50 [2]	SMILES
> 6.30	> 7.00	Cc1c(N2CCc3cnc(Nc4ccc(NC(=O)CN5CCOCC5)c(C(F)(F)F)c4)nc3C2)cnc2c1NCCO2 [Example 29, N-{4-[(7-{8-methyl-1H,2H,3H-pyrido[2,3-b][1,4]oxazin-7-yl}-5H,6H,7H,8H-pyrido[3,4-d]pyrimidin-2-yl)amino]-2-(trifluoromethyl)phenyl}-2-(morpholin-4-yl)acetamide]
6.00 to 6.30	> 7.00	Cc1c(N2CCc3cnc(Nc4cnc5c(c4)CN(C)CC5)nc3C2)cnc2c1NCCO2 [Example 115, 7-(8-methyl-2,3-dihydro-1H-pyrido[2,3-b][1,4]oxazin-7-yl)-N-(6-methyl-5,6,7,8-tetrahydro-1,6-naphthyridin-3-yl)-5,6,7,8-tetrahydropyrido[3,4-d]pyrimidin-2-amine]
> 6.30	> 7.00	Cc1c(N2CCc3cnc(Nc4ccc(CC(=O)N5CC(F)C5)cc4)nc3C2)cnc2c1NCCO2 [Example 155, 1-(3-fluoroazetidin-1-yl)-2-{4-[(7-{8-methyl-1H,2H,3H-pyrido[2,3-b][1,4]oxazin-7-yl}-5H,6H,7H,8H-pyrido[3,4-d]pyrimidin-2-yl)amino]phenyl}ethan-1-one]
> 6.30	> 7.00	Cc1cc(Nc2cc3c(cn2)CCN(c2cnc4c(c2Cl)NCCO4)C3)ccc1NC(=O)CN1CCC1 [Example 2, 2-(azetidin-1-yl)-N-{4-[(6-{8-chloro-1H,2H,3H-pyrido[2,3-b][1,4]oxazin-7-yl}-5,6,7,8-tetrahydro-2,6-naphthyridin-3-yl)amino]-2-methylphenyl}acetamide]
< 6.00	> 7.00	Cc1ccncc1N1CCc2cnc(Nc3cnc4c(c3)CN(C)CC4)nc2C1 [Example 118, N-(6-methyl-5,6,7,8-tetrahydro-1,6-naphthyridin-3-yl)-7-(4-methylpyridin-3-yl)-5,6,7,8-tetrahydropyrido[3,4-d]pyrimidin-2-amine]
> 6.30	> 7.00	Cc1c(N2CCc3cnc(Nc4ccc(CS(C)(=O)=O)cc4)cc3C2)cnc2c1NCCO2 [Example 57, N-[4-(methanesulfonylmethyl)phenyl]-6-{8-methyl-1H,2H,3H-pyrido[2,3-b][1,4]oxazin-7-yl}-5,6,7,8-tetrahydro-2,6-naphthyridin-3-amine]
> 6.30	> 7.00	Cc1c(N2CCc3cnc(Nc4ccc(CS(C)(=O)=O)c(F)c4)nc3C2)cnc2c1NCCO2 [Example 190, N-[3-fluoro-4-(methanesulfonylmethyl)phenyl]-7-{8-methyl-1H,2H,3H-pyrido[2,3-b][1,4]oxazin-7-yl}-5H,6H,7H,8H-pyrido[3,4-d]pyrimidin-2-amine]
> 6.30	> 7.00	COC(=O)Nc1ccc(Nc2ncc3c(n2)CN(c2cnc4c(c2C)NCCO4)CC3)cc1 [Example 71, methyl N-{4-[(7-{8-methyl-1H,2H,3H-pyrido[2,3-b][1,4]oxazin-7-yl}-5H,6H,7H,8H-pyrido[3,4-d]pyrimidin-2-yl)amino]phenyl}carbamate]
> 6.30	> 7.00	Cc1c(N2CCc3cnc(Nc4ccc(Cn5nccn5)cc4)nc3C2)cnc2c1NCCO2 [Example 185, 7-{8-methyl-1H,2H,3H-pyrido[2,3-b][1,4]oxazin-7-yl}-N-{4-[(2H-1,2,3-triazol-2-yl)methyl]phenyl}-5H,6H,7H,8H-pyrido[3,4-d]pyrimidin-2-amine]

More lines, now with the values behind:

SMILES	pIC50 [1]	pIC50 [2]
Cc1c(N2CCc3cnc(Nc4ccc(C(=O)N5CC[C@@H](N(C)C)C5)cc4)nc3C2)cnc2c1NCCO2 [Example 42, (3R)—N,N-dimethyl-1-{4-[(7-{8-methyl-1H,2H,3H-pyrido[2,3-b][1,4]oxazin-7-yl} 5H,6H,7H,8H-pyrido[3,4-d]pyrimidin-2-yl)amino]benzoyl}pyrrolidin-3-amine]	> 6.30	> 7.00
Cc1cc(Nc2ncc3c(n2)CN(c2cnc4c(c2C)NCCO4)CC3)ccc1NC(=O)CN1CCOCC1 [Example 48, N-{2-methyl-4-[(7-{8-methyl-1H,2H,3H-pyrido[2,3-b][1,4]oxazin-7-yl}-5H,6H,7H,8H-pyrido[3,4-d]pyrimidin-2-yl)amino]phenyl}-2-(morpholin-4-yl)acetamide]	> 6.30	> 7.00
Cc1c(N2CCc3cnc(Nc4ccc(Cn5ccnc5)cc4)nc3C2)cnc2c1NCCO2 [Example 127, N-{4-[(1H-imidazol-1-yl)methyl]phenyl}-7-{8-methyl-1H,2H,3H-pyrido[2,3-b][1,4]oxazin-7-yl}-5H,6H,7H,8H-pyrido[3,4-d]pyrimidin-2-amine]	> 6.30	> 7.00
Cc1c(N2CCc3cnc(Nc4cnc5c(c4)CN(CC(F)(F)F)CC5)nc3C2)cnc2c1NCCO2 [Example 106, 7-(8-methyl-2,3-dihydro-1H-pyrido[2,3-b][1,4]oxazin-7-yl)-N-(6-(2,2,2-trifluoroethyl)-5,6,7,8-tetrahydro-1,6-naphthyridin-3-yl)-5,6,7,8-tetrahydropyrido[3,4-d]pyrimidin-2-amine]	< 6.00	> 7.00
Cc1c(N2CCc3cnc(Nc4ccc5c(c4)CN(CC(C)(C)O)C5)nc3C2)cnc2c1NCCO2 [Example 30, 2-methyl-1-{5-[(7-{8-methyl-1H,2H,3H-pyrido[2,3-b][1,4]oxazin-7-yl}-5H,6H,7H,8H-pyrido[3,4-d]pyrimidin-2-yl)amino]-2,3-dihydro-1H-isoindol-2-yl}propan-2-ol]	> 6.30	> 7.00
Cc1c(N2CCc3cnc(Nc4ccc(CC(=O)N5CCC5)cc4)nc3C2)cnc2c1NCCO2 [Example 163, 1-(azetidin-1-yl)-2-(4-((7-(8-methyl-2,3-dihydro-1H-pyrido[2,3-b][1,4]oxazin-7-yl)-5,6,7,8-tetrahydropyrido[3,4-d]pyrimidin-2-yl)amino)phenyl)ethan-1-one]	> 6.30	> 7.00
Cc1c(N2CCc3cnc(Nc4ccc(NCCN(C)C)c(F)c4)cc3C2)cnc2c1NCCO2 [Example 124, N1-(2-(dimethylamino)ethyl)-2-fluoro-N4-(6-(8-methyl-2,3-dihydro-1H-pyrido[2,3-b][1,4]oxazin-7-yl)-5,6,7,8-tetrahydro-2,6-naphthyridin-3-yl)benzene-1,4-diamine]	6.00 to 6.30	> 7.00
Cc1c(N2CCc3cnc(Nc4ccc(N5CCC(O)CC5)cc4)nc3C2)cnc2c1NCCO2 [Example 111, 1-(4-((7-(8-methyl-2,3-dihydro-1H-pyrido[2,3-b][1,4]oxazin-7-yl)-5,6,7,8-tetrahydropyrido[3,4-d]pyrimidin-2-yl)amino)phenyl)piperidin-4-ol]	6.00 to 6.30	> 7.00
Cc1c(N2CCc3cnc(Nc4cccc(CN5CCN(C)CC5)c4)nc3C2)cnc2c1NCCO2 [Example 66, 7-{8-methyl-1H,2H,3H-pyrido[2,3-b][1,4]oxazin-7-yl}-N-{3-[(4-methylpiperazin-1-yl)methyl]phenyl}-5H,6H,7H,8H-pyrido[3,4-d]pyrimidin-2-amine]	6.00 to 6.30	> 7.00

— US20240025922A1, “TETRAHYDROPYRIDO[3,4-d]PYRIMIDINES AS HPK1 INHIBITORS” (Merck Patent GmbH, priority 2022, published 2024)
